Source: patent US12110286B2, “Benzimidazolone derived inhibitors of BCL6” (Cancer Research Technology Limited, priority 2017, dated 2024)

Target: Trx-6×His-BCL6 (human BCL6 BTB domain covering amino-acid sequence 5-129) (Homo sapiens (Human), UniProt P41182)
Experiment: HTRF in vitro assay (BCL6 / BCOR-AF633 peptide)
Format: binding
Conditions: for activity in the HTRF assay: result in words
Protocol: The % inhibition at each concentration was calculated by normalising FRET ratio to the appropriate high (DMSO with all reagents) and low (DMSO without BCL6) controls.

[1] = further generated data, 1 nM Trx-6×His-BCL6, 300 nM BCOR-AF633 peptide, 0.5 nM anti-6×His-Terbium cryptate
[2] = initially generated data, 10 nM Trx-6×His-BCL6, 300 nM BCOR-AF633 peptide, 1 nM anti-6×His-Terbium cryptate

SMILES	HTRF pIC50 [1]	activity in the HTRF assay	HTRF pIC50 [2]
Cn1c(=O)n(CCC(C)(C)O)c2cc(Nc3nc(N4CCC(n5cccn5)CC4)ncc3Cl)ccc21 [Example 42i, 5-((2-(4-(1H-pyrazol-1-yl)piperidin-1-yl)-5-chloropyrimidin-4-yl)amino)-3-(3-hydroxy-3-methylbutyl)-1-methyl-1,3-dihydro-2H-benzo[d]imidazol-2-one]	6.85		
Cn1c(=O)n(CCC(C)(C)O)c2cc(Nc3nc(N4CCOC(CO)C4)ncc3Cl)ccc21 (stereo not shown) [Example 42j, 5-((5-chloro-2-(2-(hydroxymethyl)morpholino)pyrimidin-4-yl)amino)-3-(3-hydroxy-3-methylbutyl)-1-methyl-1,3-dihydro-2H-benzo[d]imidazol-2-one]	6.81		
Cn1c(=O)n(CCC(C)(C)O)c2cc(Nc3ccncc3Br)ccc21 [Example 29c, 5-((3-bromopyridin-4-yl)amino)-3-(3-hydroxy-3-methylbutyl)-1-methyl-1,3-dihydro-2H-benzo[d]imidazol-2-one]	5.38		
Cn1c(=O)n(C[C@@H]2CCCN2CC(F)(F)F)c2cc(Nc3nc(N4CC(C)(C)OC(C)(C)C4)ncc3Cl)ccc21 [Example 35i, (S)-5-((5-chloro-2-(2,2,6,6-tetramethylmorpholino)pyrimidin-4-yl)amino)-1-methyl-3-((1-(2,2,2-trifluoroethyl)pyrrolidin-2-yl)methyl)-1,3-dihydro-2H-benzo[d]imidazol-2-one]	6.01		
Cc1cc(C)n(-c2ncc(Cl)c(Nc3ccc4c(c3)n(CCC(C)(O)CCO)c(=O)n4C)n2)n1 (stereo not shown) [Example 15e]	6.02		
C[C@@H]1CN(C(=O)c2cc(Nc3ccc4c(c3)n(CCC(C)(C)O)c(=O)n4C)c(Cl)cn2)C[C@H](C)C1(F)F [Example 36f, 5-((5-chloro-2-((3S,5R)-4,4-difluoro-3,5-dimethylpiperidine-1-carbonyl)pyridin-4-yl)amino)-3-(3-hydroxy-3-methylbutyl)-1-methyl-1,3-dihydro-2H-benzo[d]imidazol-2-one]	6.07		
Cn1c(=O)n(CCC(C)(C)O)c2cc(Nc3cc(Br)ncc3Cl)ccc21 [Example 22b, 5-((2-bromo-5-chloropyridin-4-yl)amino)-3-(3-hydroxy-3-methylbutyl)-1-methyl-1,3-dihydro-2H-benzo[d]imidazol-2-one]	5.65		
Cc1nccc(Nc2ccc3c(c2)n(C)c(=O)n3C)c1C#N [4-((1,3-dimethyl-2-oxo-2,3-dihydro-1H-benzo[d]imidazol-5-yl)amino)-2-methylnicotinonitrile]		did not exhibit the desired activity	
Cn1c(=O)n(CCC(C)(C)O)c2cc(Nc3ccnc(F)c3Cl)ccc21 [Example 29a, 5-((3-chloro-2-fluoropyridin-4-yl)amino)-3-(3-hydroxy-3-methylbutyl)-1-methyl-1,3-dihydro-2H-benzo[d]imidazol-2-one]	6.21		
Cn1c(=O)n(CCC(C)(C)O)c2cc(Nc3cc(-n4ccc(C(F)(F)F)n4)ncc3Cl)ncc21 [6-((5-chloro-2-(3-(trifluoromethyl)-1H-pyrazol-1-yl)pyridin-4-yl)amino)-1-(3-hydroxy-3-methylbutyl)-3-methyl-1,3-dihydro-2H-imidazo[4,5-c]pyridin-2-one]		did not exhibit the desired activity	
CCOC(=O)c1cc(Nc2ccc3c(c2)n(CCC(C)C(=O)OC)c(=O)n3C)c(C#N)c(Cl)n1 (stereo not shown) [Example 2b, Ethyl 6-chloro-5-cyano-4-[[3-(4-methoxy-3-methyl-4-oxo-butyl)-1-methyl-2-oxo-benzimidazol-5-yl]amino]pyridine-2-carboxylate]	6.10		6.19
Cc1cc(C)n(-c2ncc(Cl)c(Nc3ccc4c(c3)[nH]c(=O)n4C)n2)n1 [Example 15h]	5.86		
CN(C)C(=O)C1CCN(c2ncc(Cl)c(Nc3ccc4c(c3)n(CCC(C)(O)CCO)c(=O)n4C)n2)CC1 (stereo not shown) [Example 15k]	6.27		
Cn1c(=O)n(CCC(C)(C)O)c2cc(Nc3nc(N4C[C@@H]5CC[C@@H](C5)C4)ncc3Cl)ccc21 [Example 35n, 5-((2-((1R,5S)-3-azabicyclo[3.2.1]octan-3-yl)-5-chloropyrimidin-4-yl)amino)-3-(3-hydroxy-3-methylbutyl)-1-methyl-1,3-dihydro-2H-benzo[d]imidazol-2-one]	6.05		
Cn1c(=O)n(C[C@@H]2CCCN2CC2CC2)c2cc(Nc3ccnc(Cl)c3C#N)ccc21 [(S)-2-chloro-4-((3-((1-(cyclopropylmethyl)pyrrolidin-2-yl)methyl)-1-methyl-2-oxo-2,3-dihydro-1H-benzo[d]imidazol-5-yl)amino)nicotinonitrile]		did not exhibit the desired activity	
CNC(=O)c1cc(Nc2ccc3c(c2)n(CCC(C)C(=O)OC)c(=O)n3C)c(C#N)c(Cl)n1 (stereo not shown) [Example 7a, Methyl 4-[6-[[2-chloro-3-cyano-6-(methylcarbamoyl)-4-pyridyl]amino]-3-methyl-2-oxo-benzimidazol-1-yl]-2-methyl-butanoate]	6.09		5.97
Cn1c(=O)n(CCC(C)(C)O)c2cc(Nc3cc(C(F)(F)F)ncc3Cl)ccc21 [Example 29d, 5-((5-chloro-2-(trifluoromethyl)pyridin-4-yl)amino)-3-(3-hydroxy-3-methylbutyl)-1-methyl-1,3-dihydro-2H-benzo[d]imidazol-2-one]	5.48		

SMILES	HTRF pIC50 [1]	activity in the HTRF assay	HTRF pIC50 [2]
Cn1c(=O)n(CCC2(C)CO2)c2cc(Nc3ccnc(Cl)c3C#N)ccc21 (stereo not shown) [Example 32, 2-chloro-4-((1-methyl-3-(2-(2-methyloxiran-2-yl)ethyl)-2-oxo-2,3-dihydro-1H-benzo[d]imidazol-5-yl)amino)nicotinonitrile]	5.44		
Cn1c(=O)n(CCC(C)(C)O)c2cc(Nc3nc(-c4cccs4)ncc3Cl)ccc21 [Example 23d]	5.62		
Cn1c(=O)n(CCN2CCOCC2)c2cc(Nc3ccnc(Cl)c3C#N)ccc21 [2-chloro-4-((1-methyl-3-(2-morpholinoethyl)-2-oxo-2,3-dihydro-1H-benzo[d]imidazol-5-yl)amino)nicotinonitrile]		did not exhibit the desired activity	
Cn1c(=O)n(CCC(C)(C)O)c2cc(Nc3nc(N4CCOCC4)ncc3Cl)ccc21 [Example 20t]	6.51		
Cc1cncnc1Nc1ccc2c(c1)n(C)c(=O)n2C [1,3-dimethyl-5-((5-methylpyrimidin-4-yl)amino)-1,3-dihydro-2H-benzo[d]imidazol-2-one]		did not exhibit the desired activity	
Cn1cc2c(n1)CN(c1ncc(Cl)c(Nc3ccc4c(c3)n(CCC(C)(C)O)c(=O)n4C)n1)CC2 [Example 42e, 5-((5-chloro-2-(2-methyl-2,4,5,7-tetrahydro-6H-pyrazolo[3,4-c]pyridin-6-yl)pyrimidin-4-yl)amino)-3-(3-hydroxy-3-methylbutyl)-1-methyl-1,3-dihydro-2H-benzo[d]imidazol-2-one]	6.68		
CC(Cn1c(=O)n(C)c2ccc(Nc3ccnc(Cl)c3C#N)cc21)C(C)(C)O (stereo not shown) [Example 27e, 2-chloro-4-((3-(3-hydroxy-2,3-dimethylbutyl)-1-methyl-2-oxo-2,3-dihydro-1H-benzo[d]imidazol-5-yl)amino)nicotinonitrile]	5.55		
CC(C)Nc1ncc(Cl)c(Nc2ccc3c(c2)n(CCC(C)(C)O)c(=O)n3C)n1 [Example 20f]	5.99		
CC(C)(O)CCn1c(=O)n(CCC(C)(C)O)c2c(Cl)cc(Nc3nc(N4CC(C)(C)OC(C)(C)C4)ncc3Cl)cc21 [Example 35u, 4-chloro-6-((5-chloro-2-(2,2,6,6-tetramethylmorpholino)pyrimidin-4-yl)amino)-1,3-bis(3-hydroxy-3-methylbutyl)-1,3-dihydro-2H-benzo[d]imidazol-2-one]	5.74		
C[C@@H]1CN(c2ncc(Cl)c(Nc3ccc4c(c3)n(CCC(C)(C)O)c(=O)n4C)n2)C[C@@H]1C [Example 35p, 5-((5-chloro-2-((3R,4S)-3,4-dimethylpyrrolidin-1-yl)pyrimidin-4-yl)amino)-3-(3-hydroxy-3-methylbutyl)-1-methyl-1,3-dihydro-2H-benzo[d]imidazol-2-one]	6.15		
C[C@@H]1C[C@H](C)CN(c2cc(Nc3ccc4c(c3)n(CCC(C)(C)O)c(=O)n4C)c(Cl)cn2)C1 [Example 36d, 5-((5-chloro-2-((3S,5R)-3,5-dimethylpiperidin-1-yl)pyridin-4-yl)amino)-3-(3-hydroxy-3-methylbutyl)-1-methyl-1,3-dihydro-2H-benzo[d]imidazol-2-one]	5.48		
CCC1(Cn2c(=O)n(C)c3ccc(Nc4ccnc(Cl)c4C#N)cc32)CNC(=O)O1 (stereo not shown) [Example 22c]	5.76		
Cn1ccc(-c2ncc(Cl)c(Nc3ccc4c(c3)n(CCC(C)(C)O)c(=O)n4C)n2)n1 [Example 23a, 5-((5-chloro-2-(1-methyl-1H-pyrazol-3-yl)pyrimidin-4-yl)amino)-3-(3-hydroxy-3-methylbutyl)-1-methyl-1,3-dihydro-2H-benzo[d]imidazol-2-one]	6.35		
CCOC(=O)c1cnn(-c2ncc(Cl)c(Nc3ccc4c(c3)n(CCC(C)(C)O)c(=O)n4C)n2)c1 [Example 15b]	5.96		
Cn1c(=O)n(C[C@@H]2CCCN2CCF)c2cc(Nc3ccnc(Cl)c3C#N)ccc21 [Example 25f, (S)-2-chloro-4-((3-((1-(2-fluoroethyl)pyrrolidin-2-yl)methyl)-1-methyl-2-oxo-2,3-dihydro-1H-benzo[d]imidazol-5-yl)amino)nicotinonitrile: formic acid (1:1)]	5.73		
Cn1c(=O)n(CC(O)Cn2cccn2)c2cc(Nc3ccnc(Cl)c3C#N)ccc21 (stereo not shown) [Example 10f]	5.48		5.49
Cn1c(=O)n(CCc2ccccc2)c2cc(Nc3ccnc4ccnn34)ccc21 [1-methyl-3-phenethyl-5-(pyrazolo[1,5-a]pyrimidin-7-ylamino)-1,3-dihydro-2H-benzo[d]imidazol-2-one]		did not exhibit the desired activity	
